Legend:
[1] = test system: Puccinia recondita f. sp. tritici; experiment: Fungicidal activity against Puccinia recondita f. sp. tritici / wheat / leaf disc preventative (brown rust); type: in vivo; conditions: foliar, wheat leaf segments, preventative (inoculated 1 day after application), compared to untreated control
Description: (§1) Leaf disks or leaf segments of various plant species are cut from plants grown in a greenhouse. The cut leaf disks or segments are placed in multiwell plates (24-well format) onto water agar. The leaf disks are sprayed with a test solution before (preventative) or after (curative) inoculation. Compounds to be tested are prepared as DMSO solutions (max. 10 mg/ml) which are diluted to the appropriate concentration with 0.025% Tween20 just before spraying. The inoculated leaf disks or segments are incubated under defined conditions (temperature, relative humidity, light, etc.) according to the respective test system. A single evaluation of disease level is carried out 3 to 14 days after inoculation, depending on the pathosystem. Percent disease control relative to the untreated check leaf disks or segments is then calculated.
(§2) Wheat leaf segments cv. Kanzler are placed on agar in multiwell plates (24-well format) and sprayed with the formulated test compound diluted in water. The leaf disks are inoculated with a spore suspension of the fungus 1 day after application. The inoculated leaf segments are incubated at 19° C. and 75% rh under a light regime of 12 h light/12 h darkness in a climate cabinet and the activity of a compound is assessed as percent disease control compared to untreated when an appropriate level of disease damage appears in untreated check leaf segments (7-9 days after application).

Phakopsora pachyrhizi = experiment: Fungicidal activity against Phakopsora pachyrhizi / soybean / leaf disc preventative (Asian soybean rust); type: in vivo; conditions: foliar, soybean leaf disks, compared to untreated control
Description: as §1
Soybean leaf disks are placed on water agar in multiwell plates (24-well format) and sprayed with the formulated test compound diluted in water. One day after application leaf discs are inoculated by spraying a spore suspension on the lower leaf surface. After an incubation period in a climate cabinet of 24-36 hours in darkness at 20° C. and 75% rh leaf disc are kept at 20° C. with 12 h light/day and 75% rh. The activity of a compound is assessed as percent disease control compared to untreated when an appropriate level of disease damage appears in untreated check leaf disks (12-14 days after application).

[2] = test system: Glomerella lagenarium (Colletotrichum lagenarium); experiment: Fungicidal activity against Glomerella lagenarium (Colletotrichum lagenarium) liquid culture / cucumber / preventative (anthracnose); type: cell-based; conditions: Colletotrichum orbiculare, liquid culture (PDB), growth inhibition measured photometrically 3-4 days after application, compared to untreated control
Description: Mycelia fragments or conidia suspensions of a fungus prepared either freshly from liquid cultures of the fungus or from cryogenic storage, are directly mixed into nutrient broth. DMSO solutions of the test compound (max. 10 mg/ml) are diluted with 0.025% Tween20 by a factor of 50 and 10 µl of this solution is pipetted into a microtiter plate (96-well format). The nutrient broth containing the fungal spores/mycelia fragments is then added to give an end concentration of the tested compound. The test plates are incubated in the dark at 24° C. and 96% relative humidity. The inhibition of fungal growth is determined photometrically after 2 to 7 days, depending on the pathosystem, and percent antifungal activity relative to the untreated check is calculated.
Conidia of the fungus from cryogenic storage are directly mixed into nutrient broth (PDB potato dextrose broth). After placing a (DMSO) solution of test compound into a microtiter plate (96-well format), the nutrient broth containing the fungal spores is added. The test plates are incubated at 24° C. and the inhibition of growth is measured photometrically 3-4 days after application.

[3] = test system: Puccinia recondita f. sp. tritici; experiment: Fungicidal activity against Puccinia recondita f. sp. tritici / wheat / leaf disc curative (brown rust); type: in vivo; conditions: foliar, 24 h, wheat leaf segments, curative (applied 1 day after inoculation), compared to untreated control
Description: as §1
as §2, with “format).” for “format) and sprayed with the formulated test compound diluted in water.”, “segments” for “disks”, “fungus. Plates are stored in darkness at 19° C. and 75% rh. The formulated test compound diluted in water is applied” for “fungus”, “inoculation.” for “application.”, “The” for “The inoculated”, “(6-8” for “(7-9”

Compound	melting point [°C]	pest or weed control at 200 ppm [1] [%]	pest or weed control at 200 ppm (Phakopsora pachyrhizi) [%]	inhibition of growth at 20 ppm [2] [%]	pest or weed control at 200 ppm [3] [%]
O=c1ccccn1Cc1ccc(-c2noc(C(F)(F)F)n2)cc1 [Compound C-14, 1-[[4-[5-(trifluoromethyl)-1,2,4-oxadiazol-3-yl]phenyl]methyl]pyridin-2-one]	142 to 144	≥ 80	≥ 80	≥ 80	≥ 80
Cc1nn(Cc2ccc(-c3noc(C(F)(F)F)n3)cc2)c(=O)o1 [Compound B-3, 5-methyl-3-[[4-[5-(trifluoromethyl)-1,2,4-oxadiazol-3-yl]phenyl]methyl]-1,3,4-oxadiazol-2-one]	133.8 to 136	≥ 80	≥ 80	≥ 80	≥ 80
Cc1ccn(Cc2ccc(-c3noc(C(F)(F)F)n3)cc2)c(=O)c1 [Compound C-5, 4-methyl-1-[[4-[5-(trifluoromethyl)-1,2,4-oxadiazol-3-yl]phenyl]methyl]pyridin-2-one]	156 to 158	≥ 80	≥ 80	≥ 80	≥ 80
Cc1cccc(=O)n1Cc1ccc(-c2noc(C(F)(F)F)n2)cc1 [Compound C-4, 6-methyl-1-[[4-[5-(trifluoromethyl)-1,2,4-oxadiazol-3-yl]phenyl]methyl]pyridin-2-one]	88 to 90	≥ 80	≥ 80	≥ 80	≥ 80
O=c1ccc(Br)nn1Cc1ccc(-c2noc(C(F)(F)F)n2)cc1 [Compound C-2, 6-bromo-2-[[4-[5-(trifluoromethyl)-1,2,4-oxadiazol-3-yl]phenyl]methyl]pyridazin-3-one]	106.5 to 107.6	≥ 80	≥ 80	≥ 80	≥ 80
N#Cc1ccc(=O)n(Cc2ccc(-c3noc(C(F)(F)F)n3)cc2)c1 [Compound C-13, 6-oxo-1-[[4-[5-(trifluoromethylyl)-1,2,4-oxadiazol-3-yl]phenyl]methyl]pyridine-3-carbonitrile]	174 to 176	≥ 80	≥ 80	≥ 80	≥ 80

Second part, led by results:

melting point [°C]	Compound	pest or weed control at 200 ppm [1] [%]	pest or weed control at 200 ppm (Phakopsora pachyrhizi) [%]	inhibition of growth at 20 ppm [2] [%]	pest or weed control at 200 ppm [3] [%]
92 to 94	Cn1nnn(CCc2ccc(-c3noc(C(F)(F)F)n3)cc2)c1=O [Compound D-1, 1-methyl-4-[2-[4-[5-(trifluoromethyl)-1,2,4-oxadiazol-3-yl]phenyl]ethyl]tetrazol-5-one]	≥ 80	≥ 80	≥ 80	≥ 80
174 to 176	Cc1ccc(=O)n(Cc2ccc(-c3noc(C(F)(F)F)n3)cc2)c1 [Compound C-10, 5-methyl-1-[[4-[5-(trifluoromethyl)-1,2,4-oxadiazol-3-yl]phenyl]methyl]pyridin-2-one]	≥ 80	≥ 80	≥ 80	≥ 80
104 to 106	Cn1nnn(Cc2ccc(-c3noc(C(F)(F)F)n3)cc2)c1=O [Compound B-6, 1-methyl-4-[[4-[5-(trifluoromethyl)-1,2,4-oxadiazol-3-yl]phenyl]methyl]tetrazol-5-one]	≥ 80	≥ 80	≥ 80	≥ 80
178 to 180	N#Cc1cccn(Cc2ccc(-c3noc(C(F)(F)F)n3)cc2)c1=O [Compound C-7, 2-oxo-1-[[4-[5-(trifluoromethyly)-1,2,4-oxadiazol-3-yl]phenyl]methyl]pyridine-3-carbonitrile]	≥ 80	≥ 80	≥ 80	≥ 80
144 to 146	N#Cc1ccc(=O)n(Cc2ccc(-c3noc(C(F)(F)F)n3)c(F)c2F)c1 [Compound C-11, 1-[[2,3-difluoro-4-[5-(trifluoromethyl)-1,2,4-oxadiazol-3-yl]phenyl]methyl]-6-oxo-pyridine-3-carbonitrile]	≥ 80	≥ 80	≥ 80	≥ 80
